Laboratory results: publication PMC7139691, “Effect of Arginine on Chaperone-Like Activity of HspB6 and Monomeric 14-3-3ζ” (International Journal of Molecular Sciences, 2020)

Biological target: T1, HspB6 (Homo sapiens, UniProt O14558)
T1 construct: recombinant wild type; small oligomers of 55-60 kDa (dimers and tetramers)
T1 sequence (O14558 1-160): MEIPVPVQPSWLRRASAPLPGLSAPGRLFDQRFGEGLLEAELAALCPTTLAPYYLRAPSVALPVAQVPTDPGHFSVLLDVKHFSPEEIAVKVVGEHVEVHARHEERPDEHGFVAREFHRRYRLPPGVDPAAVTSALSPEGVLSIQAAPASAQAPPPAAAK
Assay: intrinsic tryptophan fluorescence titration
Format: binding
Settings: read-out: Kdiss

Kd: 10 ± 3 mM
Compound: N=C(N)NCCC[C@H](N)C(=O)O [arginine]
